We go through two compounds from patent US20240299321A1, “METHODS TO SENSITIZE CANCER CELLS AND STANDARDIZED SCREENING ASSAY FOR IMMUNOTHERAPY” (THE TRUSTEES OF INDIANA UNIVERSITY, priority 2020, published 2024).

Molecules are shown by their SMILES.

Data set [1] is described as follows: Organ damage in treated mice. The class given is in vivo.
Another data set concerns EO771 tumors. As to the kind of experiment: EO771 orthotopic breast tumor model in immunodeficient nude (NU/J) mice. The class given is in vivo. As to conditions: for tumor growth and weight: immune-deficient nude mice, 20 mg kg-1, vs control group; for size of gross dissected mammary EO771 tumors: nude mice, 20 mg kg−1, harvested day 18. How it is done: Animal studies: All animal experiments were performed in accordance with the National Institutes of Health's Animal Use Guidelines and protocols approved by the Animal Care and Use Committee of Indiana University School of Medicine. […] Each mouse was injected with a total of 2×10^5 tumor cells. 5 mice were used in each group. Tumors were measured in two dimensions using a manual caliper. Tumor volume was calculated using the following formula: V=0.5×length×width×width. Tumor volume was measured every 3 days. Tumors were harvested 22 days after injection. The tumor growth, volume and weight were analyzed. To evaluate the anti-tumor effect of drugs in immunocompetent C57BL/6 mice and immunodeficient nude (NU/J) mice, 2×10^5 EO771 cells were orthotopically injected into fat pad of the 4th mammary gland in female mice. […] For CD4/CD8 depletion experiment, the tumor-bearing mice were randomly divided into 7 groups (n=8 mice/group) including isotype control (rat IgG2a, Bioxcell), isotype control+CUDC-101, isotype control+BML-210, anti-CD8 (Clone: 53-6.72, Bioxcell)+CUDC-101, anti-CD8+BML-210, anti-CD4 (Clone: GK1.5, Bioxcell)+CUDC-101, or anti-CD4+BML-210. Intraperitoneal injection of inhibitors (20 mg kg-1) and anti-CD4/CD8 (10 mg kg-1) were administrated to the mice by 3 times/week for 2 weeks. The tumors were harvested at day 18 (NU/J mice) or day 28 (C57BL/6 mice) for further analyses. In immune checkpoint blockade experiment, 2×10^5 EO771 cells were orthotopically injected into fat pad of the 4th mammary gland in female C57BL/6 mice. From day 10, the tumor-bearing mice were randomly divided into each treatment group (n=8 mice/group), and the mice were treated with IgG2a isotype control antibody (clone 2A3, Bioxcell), BML-210 (20 mg kg-1), anti-PD-1 (200 μg/mouse, Bioxcell), or BML-210 and anti-PD-1 combo. The treatment was done 3 times/week for 2 weeks. Tumors were harvested at day 26 post injection and the tumors were analyzed by IHC staining, flow cytometry, ELISA or CyTOF assay.

For another data set, the system named is EO771 cells. As to the kind of experiment: Gene expression in EO771 cells (RNA-seq, quantitative RT-PCR). The class given is cell-based, mouse. The protocol: Quantitative reverse transcription PCR (RT-PCR): Mouse EO771 cells were treated with and without BML-210 drug for 48 h. Total RNA was isolated from the cells using TRIzol (Ambion, Lot: 260808) and the miRNeasy Mini kit (Qiagen, 157029493, Thermo Scientific). The quality of the RNA was quantified by a Nano Drop 2000 spectrophotometer. A total of 1 μg RNA was reverse transcribed into cDNA using the […] superMix reagent (Quantabio, 66141329). Quantitative PCR was performed using SYBR Green […] low Rox reagent (TaKaRa) on a Quantstudio real-time PCR system (ThermoFisher Scientific). RNA sequencing: Total RNA was extracted from EO771 cells using TRIzol (Ambion) and the miRNeasy Mini kit (Qiagen). The quantity and quality of the RNA was evaluated by an Agilent Bioanalyzer 2100. 100 ng of total RNA from each sample was used, from which ribosomal RNA was removed by the QIAseq FastSelect rRNA Removal HMR Kit (Qiagen). The cDNA library was constructed using the KAPA RNA Hyper Prep Kit (Roche Corporate) and the quality was accessed by the Qubit and Agilent Bioanalyzer. The library pool was sequenced in 100b paired-end read format on NovaSeq 6000 (Illumina) at the Center for Medical Genomics, Indiana University School of Medicine (IUSM). RNA-seq analysis: The reads were mapped to the mouse genome mm10 using STAR (v2.5)65. RNA-seq aligner with the following parameter: “--outSAMmapqUnique 60”. Uniquely mapped sequencing reads were assigned to GENCODE M22 genes using feature Counts (v1.6.2)66 with the following parameters: “-s 2 -p -Q 10”. […] The data were visualized with volcano plot using MATLAB. The gene enrichment analysis on DEGs from the Kyoto Encyclopedia of Genes and Genomes (KEGG) pathway database and Gene Ontology database was performed using the Database for Annotation, Visualization and Integrated Discovery (DAVID) functional analysis69. The analysis was visualized using MATLAB with q value (-log 10) and gene number in each GO and pathway. Gene set enrichment analysis (GSEA) of the antigen processing and presentation pathway was carried out with GSEA software70.

With `Nc1ccccc1NC(=O)CCCCCCC(=O)Nc1ccccc1` [BML-210], the “visible damages in the heart, kidney, spleen, liver and lung” value in data set [1] is “No visible damages”. In the data set on EO771 tumors, the “tumor growth and weight” value was “No significant differences”; the “size of gross dissected mammary EO771 tumors” value is listed as “no significant difference in size”. Besides, in the data set with EO771 cells (EO771, BML-210 1.0 μM, FIG. 4A), the “expression of antigen processing and presentation DEGs (qPCR)” value is “most of DEGs had higher expression levels”. In addition, in the data set on EO771 cells (RNA-seq), the “MHC-I genes (H2-D1, H2-K2, B2M), lysosome gene (Lamp1), endosome gene (Hspa8)” value is reported as “induced”; the “genome-wide gene expression profile (GO enrichment)” value is “upregulation of genes particularly enriched in lysosome, phagosome, antigen processing and presentation pathways”.
With `C#Cc1cccc(Nc2ncnc3cc(OC)c(OCCCCCCC(=O)NO)cc23)c1` [CUDC-101], the “visible damages in the heart, kidney, spleen, liver and lung” value in data set [1] is listed as “No visible damages”. Moreover, in the data set on EO771 tumors, the “tumor growth and weight” value is given as “No significant differences”; the “size of gross dissected mammary EO771 tumors” value is given as “no significant difference in size”.
